Data set [1] addresses T1, Kynurenine 3-monooxygenase (Rattus norvegicus, UniProt O88867). The experiment in a line: Inhibition of rat brain KYN 3-OHase.
Data set [2] deals with T1, Kynurenine 3-monooxygenase. The experiment in a line: Inhibition of rat liver KYN 3-OHase.
Data set [3] concerns the target Kynurenine 3-monooxygenase (Rattus norvegicus) (UniProt O88867). The experiment in a line: Inhibition of rat liver KYN 3-OHase at 100 uM concentration.
Data set [4] concerns the target T2, Kynureninase (Rattus norvegicus) (UniProt P70712).
T2 sequence (whole entry): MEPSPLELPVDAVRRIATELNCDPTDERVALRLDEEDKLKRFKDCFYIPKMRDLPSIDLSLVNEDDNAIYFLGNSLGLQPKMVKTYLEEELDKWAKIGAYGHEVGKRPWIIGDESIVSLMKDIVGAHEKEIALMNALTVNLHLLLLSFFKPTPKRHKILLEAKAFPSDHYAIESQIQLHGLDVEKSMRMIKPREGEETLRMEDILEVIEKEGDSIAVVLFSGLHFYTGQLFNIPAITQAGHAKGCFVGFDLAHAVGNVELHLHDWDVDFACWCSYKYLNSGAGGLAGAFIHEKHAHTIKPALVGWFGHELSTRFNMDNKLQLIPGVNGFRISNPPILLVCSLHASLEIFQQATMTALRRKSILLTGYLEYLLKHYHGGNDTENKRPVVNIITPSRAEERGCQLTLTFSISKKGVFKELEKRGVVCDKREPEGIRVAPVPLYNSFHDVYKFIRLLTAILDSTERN
The experiment in a line: Compound was evaluated for inhibition of rat liver KYN ase at 100 uM.

The target of data set [5] is T1, Kynurenine 3-monooxygenase. The experiment in a line: Compound was evaluated for the inhibition of rat liver KYN 3-OHase.
In data set [6] the test system is Pseudomonas fluorescens. The experiment in a line: Compound was evaluated for inhibition of PHBH. at 100 uM.
The target of data set [7] is Kynurenine/alpha-aminoadipate aminotransferase, mitochondrial (Rattus norvegicus) (UniProt Q64602). The experiment in a line: Compound was evaluated for inhibition of rat liver KAT at 100 uM.
For data set [8], the target named is T3, FMO (Mus musculus, UniProt Q64133+Q8BW75).
T3 sequence (Q8BW75 whole entry): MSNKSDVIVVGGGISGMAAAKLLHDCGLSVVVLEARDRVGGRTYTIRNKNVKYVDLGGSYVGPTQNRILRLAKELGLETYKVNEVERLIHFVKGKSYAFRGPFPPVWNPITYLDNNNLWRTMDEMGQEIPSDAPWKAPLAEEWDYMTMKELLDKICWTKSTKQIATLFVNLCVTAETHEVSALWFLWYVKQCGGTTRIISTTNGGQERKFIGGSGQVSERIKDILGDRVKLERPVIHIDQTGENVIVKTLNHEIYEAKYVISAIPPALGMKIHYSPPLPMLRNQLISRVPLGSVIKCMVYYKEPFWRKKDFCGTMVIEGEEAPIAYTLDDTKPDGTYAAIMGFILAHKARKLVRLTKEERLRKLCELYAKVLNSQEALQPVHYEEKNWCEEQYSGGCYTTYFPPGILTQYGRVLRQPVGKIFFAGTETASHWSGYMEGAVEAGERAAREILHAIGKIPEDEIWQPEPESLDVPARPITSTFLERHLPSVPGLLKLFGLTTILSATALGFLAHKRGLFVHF
T3 sequence (Q64133 whole entry): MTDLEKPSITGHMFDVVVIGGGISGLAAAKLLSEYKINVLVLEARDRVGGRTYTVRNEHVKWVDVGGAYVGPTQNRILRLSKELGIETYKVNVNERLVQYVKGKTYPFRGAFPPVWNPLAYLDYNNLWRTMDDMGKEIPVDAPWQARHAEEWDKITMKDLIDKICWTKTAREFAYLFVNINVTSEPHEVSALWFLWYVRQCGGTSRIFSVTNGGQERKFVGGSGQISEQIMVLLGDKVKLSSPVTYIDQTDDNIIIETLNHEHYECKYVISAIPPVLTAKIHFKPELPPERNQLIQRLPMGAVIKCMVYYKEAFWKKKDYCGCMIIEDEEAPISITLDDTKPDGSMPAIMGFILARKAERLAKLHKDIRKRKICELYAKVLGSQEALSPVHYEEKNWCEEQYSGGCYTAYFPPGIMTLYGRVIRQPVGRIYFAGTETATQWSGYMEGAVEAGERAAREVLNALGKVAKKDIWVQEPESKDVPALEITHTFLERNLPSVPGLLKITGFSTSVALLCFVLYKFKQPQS
The experiment in a line: Compound was evaluated for inhibition of FMO. at 100 uM. It is filed as protein assay.

Data set [9] deals with Kynurenine/alpha-aminoadipate aminotransferase, mitochondrial (Rattus norvegicus) (UniProt Q64602). The experiment in a line: Compound was evaluated for inhibition of rat liver KAT at 100 uM concentration.
The subject of data set [10] is Pseudomonas fluorescens. The experiment in a line: Compound was evaluated for inhibition of PHBH at 100 uM concentration.
Data set [11] concerns the target T2, Kynureninase (Rattus norvegicus). The experiment in a line: Compound was evaluated for inhibition of rat liver KYN ase at 100 uM concentration.
In data set [12] the target is T3, FMO. The experiment in a line: Compound was evaluated for inhibition of FMO at 100 uM concentration. It is filed as protein assay.
Data set [13] has as its target Kynurenine/alpha-aminoadipate aminotransferase, mitochondrial (Rattus norvegicus) (UniProt Q64602). The experiment in a line: Compound was evaluated for inhibition of rat liver KAT at 100 uM concentration.

Kynurenine/alpha-aminoadipate aminotransferase, mitochondrial (Rattus norvegicus), sequence (Q64602 30-425 limits assumed): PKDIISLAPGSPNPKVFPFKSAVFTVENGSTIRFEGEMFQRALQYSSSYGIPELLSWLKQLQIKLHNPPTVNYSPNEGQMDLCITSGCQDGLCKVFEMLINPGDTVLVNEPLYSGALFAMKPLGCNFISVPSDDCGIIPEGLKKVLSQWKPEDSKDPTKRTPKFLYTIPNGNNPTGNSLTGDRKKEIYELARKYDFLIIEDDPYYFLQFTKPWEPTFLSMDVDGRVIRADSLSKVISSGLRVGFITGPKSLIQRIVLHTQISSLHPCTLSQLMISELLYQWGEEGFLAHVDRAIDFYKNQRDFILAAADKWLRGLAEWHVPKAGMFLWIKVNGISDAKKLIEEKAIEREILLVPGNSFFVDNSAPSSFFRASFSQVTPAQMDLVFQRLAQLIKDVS
T1 sequence (O88867 whole entry): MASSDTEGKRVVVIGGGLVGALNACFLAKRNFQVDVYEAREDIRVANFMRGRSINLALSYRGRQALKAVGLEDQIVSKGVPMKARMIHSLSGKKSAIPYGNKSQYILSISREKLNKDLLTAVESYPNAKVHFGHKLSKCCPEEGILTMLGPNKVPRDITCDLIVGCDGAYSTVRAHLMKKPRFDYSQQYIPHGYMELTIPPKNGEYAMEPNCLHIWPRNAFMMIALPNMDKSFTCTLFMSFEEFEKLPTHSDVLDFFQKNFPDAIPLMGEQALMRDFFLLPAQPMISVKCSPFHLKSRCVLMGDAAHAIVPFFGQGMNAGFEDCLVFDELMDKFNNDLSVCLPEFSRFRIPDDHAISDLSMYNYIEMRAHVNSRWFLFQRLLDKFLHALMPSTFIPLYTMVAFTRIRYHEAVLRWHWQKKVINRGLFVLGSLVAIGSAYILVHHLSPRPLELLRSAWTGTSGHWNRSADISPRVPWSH
Kynurenine 3-monooxygenase (Rattus norvegicus), sequence (O88867 whole entry, looked up): as the sequence (O88867 whole entry) above

Regarding `C/C(=C\C(=O)c1ccc(Cl)c(Cl)c1)C(=O)O`, the half-maximal inhibitory concentration (IC50) (in general, the point on the concentration scale where inhibition reaches its midpoint) in data set [1] came to 2200 nM; in [2], 11300 nM.

As for `O=C(O)C(=O)/C=C(\O)c1ccc(F)c(F)c1`, the IC50 in data set [1] amounted to 440 nM; in [2], 1200 nM. As to `CC(N)(CC(=O)c1ccc(Cl)c(Cl)c1)C(=O)O` (centres undefined), the inhibition (usually the change of the read-out against control, counted positive when it falls) in data set [3] was determined as 35%. Take `O=C(O)C(=O)/C=C(\O)c1ccc(Cl)c(Cl)c1`: the 50% inhibitory concentration (IC50) worked out at 950 nM in [1] and 6400 nM in data set [2].

Regarding `O=C(CC(C(=O)O)c1ccccc1)c1ccc(Cl)c(Cl)c1` (centres undefined), in data set [2], the IC50 came to 19500 nM.

The compound `COc1ccc(C(=O)CC(O)C(=O)O)cc1` (centres undefined) displayed an inhibition in data set [3] of 7%. For `O=C(CC1(C(=O)O)CC1)c1ccc(Cl)c(Cl)c1`, in data set [3], the inhibition is 20%.

Turning to `CC(O)(CC(=O)c1ccc(Cl)c(Cl)c1)C(=O)O` (centres undefined), the inhibition in [3] is 43%. The same measure, in the same setting: to `CC(C)(CC(=O)c1ccc(Cl)c(Cl)c1)C(=O)O` belongs 21%.

As for `O=C(CC(Cl)C(=O)O)c1ccc(Cl)c(Cl)c1` (centres undefined), the figures for the half-inhibitory concentration (IC50) in [1] and in data set [2] were 2200 nM and 14800 nM, respectively. Consider `NC(CC(=O)c1ccc(Cl)c(Cl)c1)C(=O)O` (centres undefined), for which the inhibition came out at 10% in data set [4], 2% in the data set on Pseudomonas fluorescens [6] and 14% in data set [7]. Also, in data set [5], 330 nM corresponded to half-maximal inhibition (IC50). At FMO [8], this compound came in with an inhibition at 100 µM of 8.5%. Take `NCCC(=O)c1ccc(Cl)c(Cl)c1`: in data set [3], the inhibition was 2%. Take `O=C(CC(O)C(=O)O)c1ccc(Cl)c(Cl)c1` (centres undefined): the inhibition stood at 23% in [9], 29% in the data set with Pseudomonas fluorescens [10] and 0% in [11]. In the case of `O=C(CC(Cc1ccccc1)C(=O)O)c1ccc(Cl)c(Cl)c1` (centres undefined), the inhibition at 100 µM on FMO [12] came to 16%. Also, the inhibition in the data set on Pseudomonas fluorescens [10] amounted to 8%; in [13] it was 8%; in data set [11], 0%.

Take `O=C(CC(O)C(=O)O)c1cccc(Cl)c1` (centres undefined): the half-inhibitory concentration (IC50) in data set [1] was 480 nM; in data set [2] it was 1100 nM.

(Values after ChEMBL document CHEMBL1130635, “4-Phenyl-4-oxo-butanoic acid derivatives inhibitors of kynurenine 3-hydroxylase” (Bioorg Med Chem Lett, 1998).)
